Source: article PMC5369982, “Near infrared fluorescent imaging of choline kinase alpha expression and inhibition in breast tumors” (Oncotarget, 2017)
Where two headings read alike, the source gives them in different places.

Legend:
[1] = tested on: MCF7-EV and MCF7-CK+ tumors; test: NIRF optical imaging of JAS239 in mice bearing MCF7-EV and MCF7-CK+ tumors; type: in vivo, mouse
Method: All animal studies were approved by the Institutional Animal Care and Use Committee of the University of Pennsylvania. Six week old female athymic nude Foxn1^nu/nu mice (National Cancer Institute) were housed in a temperature-controlled environment with 12 h light/dark cycle. Anesthesia was induced using 2% isoflurane in oxygen for all experiments. For MCF7 tumors, mice were supplemented with 60-day release 0.36 mg 17β-estradiol tablets (Innovative Research of America) using a trochar in the nape of the neck. After 1 week, 4 × 10^6 cells in Matrigel (BD Biosciences) were inoculated into the left (CK+) and contralateral (EV) mammary fat pads. Subcutaneous xenografts, including those analyzed in MRI/MRS studies, were grown on the shoulder to allow for cloaking of the kidneys during optical imaging studies. Tumor growth was determined via caliper measurement of three orthogonal dimensions and volume calculated as length * width * height * π/6.
Bioluminescence and NIRF (Ex. 745 nm; Em. 800 nm) images were acquired in an IVIS Spectrum (PerkinElmer). NIRF is measured in Average Radiant Efficiency, photons per second (p/sec) corrected for the area of the region of interest (ROI) and the efficiency of the lamp (μ Watt *cm^−2 / steradian^-1). […] Bioluminescent Radiance (p/sec/cm^2/sr) was monitored by time-course imaging until the luminescence intensity plateaued. […]

[2] = Blood toxicology after the 5-day treatment; type: in vivo; settings: 5 days i.p.; MN58b 2 mg/kg, JAS239 4 mg/kg
Method: A cohort of 15 mice was inoculated with MDA-MB-231 cells. When a volume of 300 μL was reached, tumors were scanned using MRS. Tumor volumes were measured using T2-weighted images. The animals were separated into treatment groups, and for 5 consecutive days each group was injected i.p. with 100 μL of DMSO/saline vehicle (n = 5), 2 mg/kg MN58b (n = 4), or 4 mg/kg JAS239 (n = 3). Initial cohort sizes were 5 per condition, but some animals had to be removed from the study because the treatment was so effective that we were unable to place voxels within post-treatment tumors that were too small. Follow-up MRI/MRS scanning was performed on day 7 to assess tumor growth inhibition and changes in metabolite levels. After imaging, blood was collected into heparin-coated tubes by cardiac puncture. Resected tumors were embedded in Optimum Cryo-Temperature (Sakura Finetek), flash-frozen in liquid nitrogen, and stored at –80 °C. Blood samples were submitted to the Ryan Veterinary Clinic Diagnostic labs for toxicology.
Supplementary Figure 6: Both ChoKα inhibitors show early signs of tumor growth inhibition and apoptosis, however JAS239 is better tolerated in animals. (A) Vehicle-treated tumors increased in size during the treatment regimen, whereas the tumor volumes of MN58b and JAS239 treated mice were unchanged. […]

MCF7-CK+ cells = test: Cell viability, Trypan blue exclusion; type: cell-based, human; settings: 17 h, ± SEM, 3 experiments
Method: (§1) MCF7 cells were plated for Trypan exclusion assays at 1.0 × 10^6 cells/well in 6-well plates and treated with MN58b or JAS239, synthesized in house. At 17 h, cells were collected by trypsinization, stained with Trypan Blue, and counted using a Neubauer hemocytometer. For 3-(4,5-Dimethylthiazol-2-yl)-2,5-diphenyltetrazolium bromide (MTT) assays, cells in 96-well plates (7.5 × 10^4 cells/well) were treated with JAS239 or MN58b overnight, and stained with 20 μL of 5 mg/mL MTT (Sigma-Aldrich) for 2 h, lysed with DMSO and scanned for absorbance using a SpectraMax M5 plate reader (Molecular Devices) at 550 nm, subtracting background absorbance at 690 nm from each sample.
(§2) Supplementary Figure 2: Breast cancer cell viability in response to ChoK inhibitors. (A–D) Cell viability measurements via […]
(§3) (A) or JAS239 (B). MTT assays were performed on MDA-MB-231 and 4175-Luc+ (C, D) cells exposed to MN58b (C) or JAS239 (D).
(§4) Values are reported relative to untreated control groups and represent ± SEM for 3 separate experiments. At higher JAS239 concentrations, the MTT assay was used as JAS239 interfered with Trypan blue counting. There was no overlap in absorbance readings between the MTT formazan product and JAS239.
(§5) (1 picture or pasted object on this page, not shown here)

MCF7-EV cells = test: Cell viability, Trypan blue exclusion; type: cell-based, human; settings: 17 h, ± SEM, 3 experiments
Method: as §1, §2, §3, §4, §5

MDA-MB-231 cells = test: Cell viability, MTT assay; type: cell-based, human; settings: 17 h, ± SEM, 3 experiments
Method: as §1, §2, §3, §4, §5

4175-Luc+ cells = test: Cell viability, MTT assay; type: cell-based, human; settings: 17 h, ± SEM, 3 experiments
Method: as §1, §2, §3, §4, §5

4175-Luc+ tumors = test: NIRF optical imaging, JAS239 biodistribution in mice bearing 4175-Luc+ tumors; type: in vivo, mouse
Method: Bioluminescence and NIRF (Ex. 745 nm; Em. 800 nm) images were acquired in an IVIS Spectrum (PerkinElmer). NIRF is measured in Average Radiant Efficiency, photons per second (p/sec) corrected for the area of the region of interest (ROI) and the efficiency of the lamp (μ Watt *cm^−2 / steradian^-1). For bioluminescence imaging, mice were injected i.p. with 150 mg/kg of firefly D-luciferin (Biosynth). Bioluminescent Radiance (p/sec/cm^2/sr) was monitored by time-course imaging until the luminescence intensity plateaued. For NIRF imaging, mice were injected i.v. with 100 μL vehicle or JAS239 (20 nmol). Two vehicle formulations were tested in mice bearing 4175-Luc+ tumors: the first was 0.1% Tween-80 / 50 mM Tris-HCl, and the second was 1% ethanol diluted in 0.9% saline. ROIs with a 20% threshold were created from the bioluminescence image using the LivingImage software (PerkinElmer) program, and this region was used to analyze intratumoral JAS239 accumulation in the NIRF images. Resected organs were placed in 24-well plates and NIRF was measured to quantify JAS239 biodistribution. For diagnostic studies, mice bearing both MCF7-EV and MCF7-CK+ tumors of approximately 200 μL were injected with 20 nmol JAS239 in Tween-80/Tris (8 mice) or in ethanol/saline (7 mice). The cohorts were euthanized after 90 min / 24h respectively, and tumor-bearing flanks were surgically exposed. NIRF from the tumor-bearing fat pads was subtracted from background muscle signal and the Average Radiant Efficiency measured.

[3] = tested on: MDA-MB-231 tumor xenografts; set-up: method as in PMID 16397258; settings: 4 mg/kg; cited from earlier work
[4] = set-up: method as in PMID 10397253; settings: cited from earlier work

| Compound | Tumor/normal tissue fluorescence ratio [1] | Toxicology [2] | EC50 (MCF7-CK+ cells) [µM] | EC50 (MCF7-EV cells) [µM] | EC50 (MDA-MB-231 cells) [µM] | EC50 (4175-Luc+ cells) [µM] | Initial hepatic clearance time (4175-Luc+ tumors; 20 nmol i.v. in Tween-80/Tris buffer) | Tumor NIRF emission at 800 nm vs. control (4175-Luc+ tumors; 20 nmol i.v. in Tween-80/Tris buffer, 90 min) | Time of maximum NIRF contrast between tumor and background (4175-Luc+ tumors; 20 nmol i.v. in Tween-80/Tris buffer, post-injection) [min] | Time of highest tumor signal to noise (4175-Luc+ tumors; 20 nmol i.v. in ethanol/saline vehicle, subcutaneous tumors) [h] | Tumor-to-muscle ratio ex vivo (4175-Luc+ tumors; ethanol/saline vehicle, 24 h post-injection) | Hepatic signal compared to the Tween-80/Tris vehicle (4175-Luc+ tumors; ethanol/saline vehicle, 24 h post-injection, resected organs) | PC levels in tumor xenografts [3] | Tolerability ([4]; 10 mg/kg) | Tolerability ([4]; dosed daily for 5 days at 5 mg/kg) |
| --- | --- | --- | --- | --- | --- | --- | --- | --- | --- | --- | --- | --- | --- | --- | --- |
| CC1(C)C(=C/C=C/C=C/C=C/C2=[N+](CCO)c3ccccc3C2(C)C)N(CCO)c2ccccc21 [JAS239] | 2.8 ± 0.2 | No observable or measurable toxicity | 5.33 ± 0.84 | 4.04 ± 0.55 | 27.2 ± 7.9 | 35 ± 21.6 | approximately 75 min | an order of magnitude stronger | 90 | 24 | nearly two-fold | dropped nearly one order of magnitude | – | – | – |
| MN58b [reference compound] | – | elevation of blood urea nitrogen | 6.86 ± 0.43 | 3.29 ± 0.48 | 14.3 ± 4.6 | 20.7 ± 6.4 | – | – | – | – | – | – | lower PC levels | lethal | tolerable |
